# From patent US9782522B2, “Compositions and methods for treating and preventing neointimal stenosis” (Yale University, priority 2011, dated 2017)
# How the values were obtained:
# [1] = test system: TEVG stenosis; test: Tissue-engineered vascular graft (TEVG) stenosis model; type: in vivo, mice
# Excerpt: Scaffolds were constructed from a nonwoven polyglycolic acid (PGA) mesh (Concordia Fibers) and a co-polymer sealant solution of poly-L-lactide and -ε-caprolactone (P(CL/LA)) as previously described (Roh J D, et al. Biomaterials. 29(10):1454 (2008)). For scaffold seeding studies, bone marrow was collected from the femurs of syngeneic C57BL/6 mice. Following purification of the mononuclear cell component using Histopaque-1086 (Sigma) centrifugation, one million mononuclear cells were manually pipetted onto the scaffold. The seeded scaffold was incubated in RPMI 1640 Medium (Gibco) overnight prior to implantation as previously described (Roh J D, et al. Biomaterials. 29(10):1454 (2008)).
# sFGFR1-IIIc adenovirus was previously described (Murakami M, et al. J Clin Invest. 118(10):3355 (2008)) at a dose of 5×10^10 viral particles per mouse 1 week prior to TEVG implantation by tail vein injection. Control mice were given equivalent volumes of sterile PBS. Serum level of sFGFR1-IIIc was measured by a Human IgG Subclass Profile kit (Invitrogen).
# Mice treated with TGFβRI kinase inhibitor were treated with SB431542 hydrate (Sigma) in DMSO given by intraperitoneal injection twice a day from post-operative day 0 to post-operative day 14 at a dose of 10 mg/kg. Control mice were treated with equivalent volumes of sterile DMSO.
# Explanted grafts were pressure fixed in 10% formalin overnight and then embedded in paraffin or glycolmethacrylate using previously published methods (Roh J D, et al. Proc Natl Acad Sci USA. 107(10):4669 (2010)). Sections were stained with H&E or Gomori Trichrome. Graft luminal diameters were measured using ImageJ software. Stenosis was defined as greater than 50% decrease in luminal diameter. Critical stenosis was defined as 80% narrowing of the luminal diameter. Graft occlusion was defined as 100% narrowing of the luminal diameter. For EM studies scaffolds were cut into 0.5 mm thick cross-sections and imaged on a […] scanning electron microscope (Hillsboro) as previously described (Roh J D, et al. Biomaterials. 29(10):1454 (2008)). TGFβ positive cell area was measured using ImageJ software. Two separate sections of each explant were counterstained with hematoxalin and imaged at 400× magnification. The number of nuclei was then counted in five regions of each section and averaged. LacZ/SMA colocalized cells were quantified in the same manner using double immunofluorescent staining imaged under 60× confocal magnification.
# [2] = SB-431542 release from microparticles and scaffolds; type: physicochemical
# Experimental: Total encapsulation was approximated as the amount of SB-431542 released over a 14-day period. Percent encapsulation efficiency was calculated as total encapsulation divided by maximum theoretical encapsulation. 5 mg of avidin-coated PLGA microparticles containing SB-431542, PGA-P(CL/LA) trimmed scaffolds and treated with pLLB and SB-431542-eluting microparticles as above, and SB-431542-eluting PGA-P(CL/LA) trimmed scaffolds were incubated with PBS in triplicate on a rotary shaker at 37° C. Samples were removed at specific time points and centrifuged at 13200 RPM for 10 minutes. 300 μl of supernatant was drawn and replaced with 300 μl PBS. Concentration of SB-431542 in supernatant diluted with 600 μl PBS was determined by spectrophotometry at 320 nm.
# [3] = test system: ALK-1, -2, -3, and -6; conditions: cited from earlier work
# [4] = test system: 3T3 human fibroblasts; test: Bioactivity of encapsulated SB-431542 (phosphorylated SMAD-2 after TGF-β1); type: cell-based
# Experimental: SB-431542 was released into 1 ml PBS from 10 mg avidin-coated PLGA microparticles and one untrimmed SB-431542-eluting PGA-P(CL/LA) scaffold in 2 ml microcentrifuge tubes at 37° C. At 48 hours, samples were centrifuged at 13200 RPM for 10 minutes, supernatants were collected and analyzed by spectrophotometry at 320 nm. SB-431542 concentrations were adjusted to 10 μM by dilution with PBS. 3T3 human fibroblasts were plated at 500,000/well and stimulated at confluence with 700 ul 10 μM SB-431542 in PBS eluted from particles or scaffolds, a stock solution of 10 or 1 μM SB-431542 containing <1% DMSO, or PBS. After 30 minutes at 37° C., cells were washed and stimulated with 200 ul 2 ng/ml recombinant human TGF-β1 (BD Biosciences) for 1 hour at 37 C. Cells were lysed and protein samples were separated by gel electrophoresis with a 12% polyacrylamide gel and probed with primary antibody to phosphorylated SMAD-2 (ser426/ser428, Cell Signaling Technology) and secondary goat anti-rabbit IgG (Cell Signaling Technology). The gel was stripped and reprobed with anti-SMAD2/3 as a loading control.
# [5] = Tie2-CreXRosa26 mice, 10 mg/kg twice daily intraperitoneal for 2 weeks, vs DMSO
# [6] = inhibitor added to the solvent used to make the grafts
smiles,measurement,setting,value
"NC(=O)c1ccc(-c2nc(-c3ccc4c(c3)OCO4)c(-c3ccccn3)[nH]2)cc1 [SB431542, 4-[4-(1,3-Benzodioxol-5-yl)-5-(2-pyridinyl)-1H-imidazol-2-yl]-benzamide]",TEVG luminal diameter,[1]; [5],significantly increases
same,graft patency,[1]; [5],significantly increases
same,LacZ-positive smooth muscle cells in occluded grafts,"[1]; Tie2 lineage-tracing mice, drug treated",significant reduction
same,Patency,"[1]; local drug delivery (drug in microparticles, drug in solvent), 2 weeks, unseeded grafts, mouse model",significantly increases
same,neotissue creation,"[1]; local drug delivery, unseeded grafts, mouse model",enabled neotissue creation
same,neotissue creation (CD31 positive endothelial layer lining SMA positive smooth muscle layer),"[1]; systemic treatment, 10 mg/kg twice daily intraperitoneal",proper neotissue creation
same,Release of the drug,"[2]; PLGA microparticle system tethered to TEVG scaffold, full 2-week time course",steady release
same,Release profile,[2]; [6],favorable release profile
same,"Effect on ALK-1, -2, -3, and -6 and hence BMP signaling",[3],without effect
same,Biologic activity of the released drug,[4]; [6],continued biologic activity
same,Biologic activity of the released drug,[4]; microparticle system,maintains its biologic activity
